Laboratory results from patent publication US5079150A, “High sensitivity detection of peroxidase activity” (Becton, Dickinson and Company, priority 1988, dated 1992).

Tests used:
[1] = target: T1, Horseradish peroxidase (Armoracia rusticana, UniProt P00433); experiment: Comparison of substrates for HRP detection on membranes, reflectance densitometer; assay type: biochemical; settings: substrate 2 mg/mL, approximately three minutes
T1 sequence (P00433 31-353): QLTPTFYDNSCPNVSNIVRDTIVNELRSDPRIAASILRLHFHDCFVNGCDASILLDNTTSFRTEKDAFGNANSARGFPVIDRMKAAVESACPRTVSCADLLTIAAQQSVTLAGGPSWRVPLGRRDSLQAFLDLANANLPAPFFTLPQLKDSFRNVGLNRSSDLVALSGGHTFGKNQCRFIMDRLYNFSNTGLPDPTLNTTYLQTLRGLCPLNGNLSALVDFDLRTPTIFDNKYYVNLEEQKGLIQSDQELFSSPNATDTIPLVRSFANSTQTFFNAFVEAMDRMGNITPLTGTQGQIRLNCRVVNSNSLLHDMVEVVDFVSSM
Procedure: Horseradish peroxidase was diluted serially in 10-fold steps in a buffer containing 51 mM phosphate, 24 mM citrate, pH 5.0. Spot volumes of 1 μL of each stock were applied to either nitrocellulose (0.45 micron, Schleicher and Schuell) or IMMUNODYNE™ nylon immunoaffinity membrane (5 micron, Pall). The membranes were allowed to air dry and then immersed in filtered substrate solutions containing 2 mg/mL of substrate compound and 0.68 μL/mL of 30% hydrogen peroxide in citrate/phosphate buffer. The reaction was quenched after approximately three minutes with a water rinse. The colored spots were quantitated with a reflectance densitometer (Gretag model 183). The results are presented in Table II in arbitrary units of color density.

[2] = target: T2, HRP conjugated anti RSV monoclonal antibody (Armoracia rusticana, UniProt P00433); experiment: Sandwich immunoassay for RSV on IMMUNODYNE nylon membrane, HRP-labelled antibody, colored spot read with densitometer; assay type: biochemical, Horseradish; settings: for intensity of the colored spot (color density): substrate 2 mg/mL
T2 sequence (P00433 31-338 limits assumed): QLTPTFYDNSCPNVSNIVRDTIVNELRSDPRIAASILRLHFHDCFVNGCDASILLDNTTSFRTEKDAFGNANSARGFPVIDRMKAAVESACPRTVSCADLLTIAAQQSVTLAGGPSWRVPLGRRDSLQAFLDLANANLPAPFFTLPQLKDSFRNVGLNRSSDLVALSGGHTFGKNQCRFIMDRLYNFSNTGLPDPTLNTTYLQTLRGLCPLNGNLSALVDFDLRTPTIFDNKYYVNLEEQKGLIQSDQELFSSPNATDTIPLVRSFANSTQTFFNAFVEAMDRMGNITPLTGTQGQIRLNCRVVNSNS
Procedure: Ten μg of anti RSV antibody in 2 μl of carbonate buffer (50 mM, pH 9.5) were applied to an IMMUNODYNE™ nylon membrane with a micropipette. The membrane was incubated with a TRIS buffered solution of casein to block the remaining sites, and dried. The membrane was assembled into a device which allows liquids to be passed through the membrane and into an absorbent pad. Serial dilutions of a 300 ng stock of RSV infected HEp-2 cells were prepared in a buffer containing TRIS, sodium chloride, EDTA and a detergent. 150 μl of this material was passed through the membrane. Another antibody coated membrane was treated with 300 ng of uninfected cells as a control.
The membranes were washed with TRIS buffered saline (TBS) and incubated with HRP conjugated anti RSV monoclonal antibody in TRIS containing casein. After two washings with TBS buffer, the membranes were treated with citrate/phosphate buffered (pH 5.0) solutions of DAT and DAB (2 mg/mL) containing hydrogen peroxide. After a five minute incubation, the enzymatic reaction was stopped by the addition of TBS, and the intensity of the colored spots was compared using a densitometer (Model 183, Gretag Ltd., CH-8105 Regensdorf, Switzerland). The background control substracted results of this experiment are presented in Table 1 in arbitrary units of color density.

[3] = IMMUNODYNE nylon membrane, amount of HRP 30 pg
[4] = IMMUNODYNE nylon membrane, amount of HRP 0.3 ng
[5] = IMMUNODYNE nylon membrane, amount of HRP 3 ng
[6] = IMMUNODYNE nylon membrane, amount of HRP 30 ng
[7] = IMMUNODYNE nylon membrane, amount of HRP 0.3 mg
[8] = Nitrocellulose membrane, amount of HRP 30 pg
[9] = Nitrocellulose membrane, amount of HRP 0.3 ng
[10] = Nitrocellulose membrane, amount of HRP 3 ng
[11] = Nitrocellulose membrane, amount of HRP 30 ng
[12] = Nitrocellulose membrane, amount of HRP 0.3 mg
[13] = 11 ng of infected cells, pH 5.0, five minute incubation
[14] = 33 ng of infected cells, pH 5.0, five minute incubation
[15] = 100 ng of infected cells, pH 5.0, five minute incubation
[16] = 300 ng of RSV infected HEp-2 cells, pH 5.0, hydrogen peroxide, five minute incubation, background control subtracted
[17] = Control: 300 ng of uninfected cells, pH 5.0, five minute incubation

## Cc1cc(-c2cc(C)c(N)c(C)c2)cc(C)c1N [TMB, 3,3',5,5'-tetramethylbenzidine, reference compound]
[1]; [3]
  color density of spot: .00 arbitrary units
[1]; [4]
  color density of spot: .00 arbitrary units
[1]; [5]
  color density of spot: .11 arbitrary units
[1]; [6]
  color density of spot: .19 arbitrary units
[1]; [7]
  color density of spot: .23 arbitrary units
[1]; [8]
  color density of spot: .01 arbitrary units
[1]; [9]
  color density of spot: .04 arbitrary units
[1]; [10]
  color density of spot: .08 arbitrary units
[1]; [11]
  color density of spot: .09 arbitrary units
[1]; [12]
  color density of spot: .09 arbitrary units

## Nc1ccc(Cl)cc1N [4-Chloro-1,2-phenylenediamine]
[1]; [3]
  color density of spot: .06 arbitrary units
[1]; [4]
  color density of spot: .12 arbitrary units
[1]; [5]
  color density of spot: .68 arbitrary units
[1]; [6]
  color density of spot: 1.89 arbitrary units
[1]; [7]
  color density of spot: 2.24 arbitrary units
[1]; [8]
  color density of spot: .09 arbitrary units
[1]; [9]
  color density of spot: .26 arbitrary units
[1]; [10]
  color density of spot: .55 arbitrary units
[1]; [11]
  color density of spot: .87 arbitrary units
[1]; [12]
  color density of spot: 1.25 arbitrary units

## Nc1ccc(-c2ccc(N)c(N)c2)cc1N [DAB, 3,3'-diaminobenzidine, reference compound]
[1]; [3]
  color density of spot: .00 arbitrary units
[1]; [4]
  color density of spot: .04 arbitrary units
[1]; [5]
  color density of spot: .22 arbitrary units
[1]; [6]
  color density of spot: .78 arbitrary units
[1]; [7]
  color density of spot: 1.67 arbitrary units
[1]; [8]
  color density of spot: .00 arbitrary units
[1]; [9]
  color density of spot: .04 arbitrary units
[1]; [10]
  color density of spot: .22 arbitrary units
[1]; [11]
  color density of spot: .43 arbitrary units
[1]; [12]
  color density of spot: 1.03 arbitrary units
[2]; [13]
  intensity of the colored spot (color density): .04 arbitrary units
[2]; [14]
  intensity of the colored spot (color density): .03 arbitrary units
[2]; [15]
  intensity of the colored spot (color density): .04 arbitrary units
[2]; [16]
  intensity of the colored spot (color density): .07 arbitrary units
[2]; 300 ng of infected cells
  color reading on the densitometer, in words: barely perceptible color reading
[2]; [17]
  intensity of the colored spot (color density): 0 arbitrary units

## Nc1cc(Cl)c(Cl)cc1N [4,5-Dichloro-1,2-phenylenediamine]
[1]; [3]
  color density of spot: .00 arbitrary units
[1]; [4]
  color density of spot: .00 arbitrary units
[1]; [5]
  color density of spot: .10 arbitrary units
[1]; [6]
  color density of spot: .41 arbitrary units
[1]; [7]
  color density of spot: .48 arbitrary units
[1]; [8]
  color density of spot: .02 arbitrary units
[1]; [9]
  color density of spot: .10 arbitrary units
[1]; [10]
  color density of spot: .31 arbitrary units
[1]; [11]
  color density of spot: .43 arbitrary units
[1]; [12]
  color density of spot: .60 arbitrary units

## Cc1cc(N)c(N)cc1C [4,5-Dimethyl-1,2-phenylenediamine]
[1]; [3]
  color density of spot: .00 arbitrary units
[1]; [4]
  color density of spot: .05 arbitrary units
[1]; [5]
  color density of spot: .22 arbitrary units
[1]; [6]
  color density of spot: .50 arbitrary units
[1]; [7]
  color density of spot: .53 arbitrary units
[1]; [8]
  color density of spot: .03 arbitrary units
[1]; [9]
  color density of spot: .11 arbitrary units
[1]; [10]
  color density of spot: .22 arbitrary units
[1]; [11]
  color density of spot: .43 arbitrary units
[1]; [12]
  color density of spot: .55 arbitrary units

## Cc1ccc(N)c(N)c1 [DAT, 3,4 Diaminotoluene]
[1]; [3]
  color density of spot: .04 arbitrary units
[1]; [4]
  color density of spot: .21 arbitrary units
[1]; [5]
  color density of spot: .54 arbitrary units
[1]; [6]
  color density of spot: .85 arbitrary units
[1]; [7]
  color density of spot: .99 arbitrary units
[1]; [8]
  color density of spot: .03 arbitrary units
[1]; [9]
  color density of spot: .09 arbitrary units
[1]; [10]
  color density of spot: .10 arbitrary units
[1]; [11]
  color density of spot: .28 arbitrary units
[1]; [12]
  color density of spot: .38 arbitrary units
[2]; [13]
  intensity of the colored spot (color density): .28 arbitrary units
[2]; [14]
  intensity of the colored spot (color density): .37 arbitrary units
[2]; [15]
  intensity of the colored spot (color density): .57 arbitrary units
[2]; [16]
  intensity of the colored spot (color density): .82 arbitrary units
[2]; [17]
  intensity of the colored spot (color density): .24 arbitrary units
[2]; RSV infected HEp-2 cells
  amount of infected cells down to which stable, deeply colored spots well above control values were obtained: 33 ng
